Measurements from patent US20210238187A1, “AZIRIDINE CONTAINING EPOTHILONE ANALOGS, METHODS OF SYNTHESIS, METHODS OF TREATMENT, AND DRUG CONJUGATES” (WILLIAM MARSH RICE UNIVERSITY, priority 2017, published 2021).
pEC50, pIC50: −log10 of the molar value. Read-outs that look alike come from different tables or passages of the source. Non-standard residues stand in square brackets, D forms with d. Residues, ends and D or L forms follow the SMILES beside them. *: point of attachment. Dolaproine = CO[C@@H]([C@@H]1CCCN1)[C@@H](C)C(=O)O; Dil = CC[C@H](C)[C@H](NC)[C@@H](CC(=O)O)OC; X1 = C[C@@H](N*)[C@@H](O)c1ccccc1; NMeV = CN[C@H](C(=O)O)C(C)C

Tests used:
NCI/ADR-RES = test: Cytotoxicity (GI50) assay, NCI/ADR-RES; assay type: cell-based, human; conditions: Homo sapiens, NCI/ADR-RES, read-out: Cancer cell lines GI50, NCI/ADR-RES
[1] = system: MES SA, MES SA DX, and HEK 293T; test: Cytotoxicity (IC50), summary over MES SA, MES SA DX and HEK 293T; assay type: cell-based, human; conditions: read-out: IC50 against all three cell lines (summary of Table 4)
MES SA DX = test: Cytotoxicity assay (CellTiter-Glo), MES SA DX; assay type: cell-based, human; conditions: read-out: Cancer cell lines IC50, MES SA DX
MES SA = test: Cytotoxicity assay (CellTiter-Glo), MES SA; assay type: cell-based, human; conditions: human uterine sarcoma cell line, 72 hours, CellTiter-Glo, read-out: Cancer cell lines IC50, MES SA
MCF-7 = test: Cytotoxicity (GI50) assay, MCF-7; assay type: cell-based, human; conditions: MCF7; human breast cancer cell line; concentration required to decrease cell growth by 50%; read-out: Cancer cell lines GI50, MCF-7
MDA-MB-435 = test: Cytotoxicity (GI50) assay, MDA-MB-435; assay type: cell-based, human; conditions: MDA-MB-435; human melanoma cell line; read-out: Cancer cell lines GI50, MDA-MB-435
OVCAR-8 = test: Cytotoxicity (GI50) assay, OVCAR-8; assay type: cell-based, human; conditions: OVCAR-8; human ovarian cancer cell line; read-out: Cancer cell lines GI50, OVCAR-8
Tubulin = Tubulin assembly induction; assay type: biochemical
SNB-75 = test: Cytotoxicity (GI50) assay, SNB-75; assay type: cell-based, human; conditions: SNB-75; human glioblastoma cell line; read-out: Cancer cell lines GI50, SNB-75
human cancer cell lines [2] = system: human cancer cell lines
human cancer cell lines [3] = test: cells; conditions: read-out: GI50, range over the cell lines of Table 3
[4] = highly drug resistant human ovarian cancer cell line
[5] = Homo sapiens, MES SA cell line with marked multidrug resistance, 72 hours, CellTiter-Glo

Compound	GI50 (NCI/ADR-RES; [4]) [µM]	pIC50 ([1]; Homo sapiens)	pIC50 (MES SA DX; [5])	pIC50 (MES SA; MES-SA)	GI50 (MCF-7) [nM]	GI50 (MDA-MB-435) [nM]	GI50 (OVCAR-8) [nM]	pEC50 (Tubulin; […])	GI50 (SNB-75) [nM]	pIC50 [1]	pIC50 (MES SA DX)	pIC50 (MES SA)	cytotoxicity (in words) (human cancer cell lines [2])	GI50 (NCI/ADR-RES) [µM]	pIC50 (MES SA DX; Homo sapiens, MES-SA, 72 h)	GI50 (human cancer cell lines [3]) [nM]	pEC50 (Tubulin)
CC(=O)O[C@H]1C(=O)[C@@]2(C)[C@H]([C@H](OC(=O)c3ccccc3)[C@]3(O)C[C@H](OC(=O)[C@H](O)[C@@H](NC(=O)c4ccccc4)c4ccccc4)C(C)=C1C3(C)C)[C@]1(OC(C)=O)CO[C@@H]1C[C@@H]2O [paclitaxel, reference compound]	4.8	≤ 8.75	< 6.40	8.61	7.8	5	26	4.82	15								
N-acetyl calicheamicin γ1^1 [NAC, reference compound]										≤ 9.78	7.82	9.44					
CC(=O)[C@@H]1C[C@@H]2N(CCO)[C@]2(C)CCC[C@H](C)[C@H](O)[C@@H](C)C(=O)C(C)(C)[C@@H](O)CC(=O)O1 (stereo partly drawn) [compound 81, (1S,3S,7S,10R,11S,12S,16R)-3-Acetyl-7,11-dihydroxy-17-(2-hydroxyethyl)-8,8,10,12,16-penta-methyl-4-oxa-17-azabicyclo[14.1.0]heptadecane-5,9-dione]	> 5		< 6.40	7.44	580	200	550	< 4.22	360				significant cytotoxicity				
CSc1cc(/C=C(\C)[C@@H]2C/C=C(/C)CCC[C@H](C)[C@H](O)[C@@H](C)C(=O)C(C)(C)[C@@H](O)CC(=O)O2)nn1C [compound 73, (4S,7R,8S,9S,13Z,16S)-4,8-Dihydroxy-5,5,7,9,13-pentamethyl-16-{(1E)-1-[1-methyl-5-(methylsulfanyl)-1H-pyrazol-3-yl]prop-1-en-2-yl}oxacyclohexadec-13-ene-2,6-dione]		7.41 to 9.77		7.62	5		22							0.052	7.41	5 to 52	5.03
CC[C@H](C)[C@@H]([C@@H](CC(=O)N1CCC[C@H]1[C@H](OC)[C@@H](C)C(=O)N[C@H](C)[C@@H](O)c1ccccc1)OC)N(C)C(=O)[C@@H](NC(=O)[C@@H](NC)C(C)C)C(C)C [MMAE, monomethyl auristatin E, reference compound] (H-[NMeV]V[Dil][Dolaproine]-X1)										≤ 10.17	7.05	10.02					
